From ChEMBL document CHEMBL1770088, “Orally bioavailable imidazoazepanes as calcitonin gene-related peptide (CGRP) receptor antagonists: discovery of MK-2918” (Bioorg Med Chem Lett, 2011)
≈ marks a conversion by molar mass, not a printed value.

Assays:
[1] = target: T1, Calcitonin gene-related peptide type 1 receptor (Homo sapiens, UniProt O60894+Q16602); assay: Antagonist activity at CGRP receptor assessed as inhibition of CGRP-stimulated cAMP production by cell based assay; format: functional
T1 sequence (Q16602 whole entry, one chain of several): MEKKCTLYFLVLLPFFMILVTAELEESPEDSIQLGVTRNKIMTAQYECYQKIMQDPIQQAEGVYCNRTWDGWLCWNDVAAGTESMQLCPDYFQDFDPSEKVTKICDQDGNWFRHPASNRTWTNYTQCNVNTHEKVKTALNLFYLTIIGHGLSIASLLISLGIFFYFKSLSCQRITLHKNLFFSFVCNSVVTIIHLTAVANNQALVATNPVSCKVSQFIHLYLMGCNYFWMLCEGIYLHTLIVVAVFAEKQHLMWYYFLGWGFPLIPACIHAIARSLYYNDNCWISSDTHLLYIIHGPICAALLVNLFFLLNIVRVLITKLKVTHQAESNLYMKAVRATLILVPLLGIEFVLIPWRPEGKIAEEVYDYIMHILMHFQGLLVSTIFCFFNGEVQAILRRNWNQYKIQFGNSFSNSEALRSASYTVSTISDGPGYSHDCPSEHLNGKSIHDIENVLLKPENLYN

[2] = target: T1, Calcitonin gene-related peptide type 1 receptor; assay: Antagonist activity at CGRP receptor assessed as inhibition of CGRP-stimulated cAMP production by cell based assay in presence of 50% human serum; format: functional
[3] = target: T1, Calcitonin gene-related peptide type 1 receptor; assay: Displacement of [125I]-CGRP from human recombinant CGRP receptor
[4] = Apparent permeability of compound; format: ADME; settings: not told
[5] = Oral bioavailability in rat at 10 mg/kg, po administered as a suspension in 1% aqueous methylcellulose; format: ADME, organism-based; settings: in vivo
Homo sapiens = species on record: Homo sapiens; assay: Ratio of IC50 for inhibition of [35S]-MK-499 binding to human ERG channel to IC50 for inhibition of cell based CGRP-stimulated cAMP production
[6] = Oral bioavailability in rat at 10 mg/kg, po administered as a solution in 1:1 imwitor:tween; format: ADME, organism-based; settings: in vivo
Rhesus monkey [7] = assay: Inhibition of capsaicin-induced dermal vasodilation in orally dosed rhesus monkey; format: functional, Macaca mulatta
[8] = Aqueous solubility of the compound at pH 7.4; settings: buffer
Rhesus monkey [9] = assay: Oral bioavailability in rhesus monkey assessed as N-((6S,9R)-6-(2,3-difluorophenyl)-3-(2-hydroxypropan-2-yl)-6,7,8,9-tetrahydro-5H-imidazo[1,2-a]azepin-9-yl)-2'-oxo-1',2'-dihydrospiro[piperidine-4,4'-pyrido[2,3-d][1,3]oxazine]-1-carboxamide at 10 mg/kg, po or iv normalized to AUC; format: ADME, organism-based, Macaca mulatta; settings: in vivo
Rattus norvegicus = assay: Oral bioavailability in rat assessed as N-((6S,9R)-6-(2,3-difluorophenyl)-3-(2-hydroxypropan-2-yl)-6,7,8,9-tetrahydro-5H-imidazo[1,2-a]azepin-9-yl)-2'-oxo-1',2'-dihydrospiro[piperidine-4,4'-pyrido[2,3-d][1,3]oxazine]-1-carboxamide at 10 mg/kg, po or iv normalized to AUC; format: ADME, organism-based; settings: in vivo
Canis familiaris = assay: Oral bioavailability in dog assessed as N-((6S,9R)-6-(2,3-difluorophenyl)-3-(2-hydroxypropan-2-yl)-6,7,8,9-tetrahydro-5H-imidazo[1,2-a]azepin-9-yl)-2'-oxo-1',2'-dihydrospiro[piperidine-4,4'-pyrido[2,3-d][1,3]oxazine]-1-carboxamide at 10 mg/kg, po or iv normalized to AUC; format: ADME, organism-based, Canis lupus familiaris; settings: in vivo
[10] = Aqueous solubility of the compound at pH 3; format: physicochemical; settings: buffer
[11] = Oral bioavailability in dog at 10 mg/kg, po; format: ADME, organism-based, Canis lupus familiaris; settings: in vivo
[12] = Oral bioavailability in rhesus monkey at 10 mg/kg, po; format: ADME, organism-based, Macaca mulatta; settings: in vivo

SMILES	IC50 [1] [nM]	IC50 [2] [nM]	Ki [3] [nM]	bioavailability [5] [%]	Ratio IC50 (Homo sapiens)	also measured
CC1(c2cnc3n2C[C@H](c2cccc(F)c2F)CC[C@H]3NC(=O)N2CCC3(CC2)OC(=O)Nc2ncccc23)CCCO1 (some centres not stated)	0.21	0.76	0.036	8	17000	–
CC(C)(O)c1cnc2n1C[C@H](c1cccc(F)c1F)CC[C@H]2NC(=O)N1CCC2(CC1)OC(=O)Nc1ncccc12	0.86	1.5	0.29	3	23000	EC90 (Rhesus monkey [7]): 330 nM
CC(C)(OCC(F)(F)F)c1cnc2n1C[C@H](c1cccc(F)c1F)CC[C@H]2NC(=O)N1CCC2(CC1)OC(=O)Nc1ncccc12	0.65	13	0.16	–	6100	–
O=C(N[C@@H]1CC[C@@H](c2cccc(F)c2F)Cn2c(CC(F)(F)F)nnc21)N1CCC2(CC1)C(=O)Nc1ncccc12	2.3	2.7	0.48	–	> 13000	bioavailability [6]: 6%
O=C(N[C@@H]1CC[C@@H](c2cccc(F)c2F)Cn2c(C3(C(F)(F)F)CC3)cnc21)N1CCC2(CC1)C(=O)Nc1ncccc12	1.4	8.6	0.63	–	880	–
O=C(N[C@@H]1CC[C@@H](c2cccc(F)c2F)CN(CC(F)(F)F)C1=O)N1CCC(n2c(=O)[nH]c3ncccc32)CC1 [TELCAGEPANT]	–	–	–	–	–	Papp [4]: 21 ×10⁻⁶ cm/s; solubility [8]: 30 µg/mL (≈ 53 µM)
O=C(N[C@@H]1CC[C@@H](c2cccc(F)c2F)Cn2c(CC(F)(F)F)cnc21)N1CCC2(CC1)C(=O)Nc1ncccc12	0.94	4	0.61	47	9300	–
COCc1cnc2n1C[C@H](c1cccc(F)c1F)CC[C@H]2NC(=O)N1CCC2(CC1)OC(=O)Nc1ncccc12	0.61	1.7	0.14	15	8900	–
O=C1Nc2ncccc2C2(CCN(C(=O)N[C@@H]3CC[C@@H](c4cccc(F)c4F)Cn4c(CC(F)(F)F)nnc43)CC2)O1	0.83	1.3	0.19	< 1	> 36000	–
CCOC(C)(C)c1cnc2n1C[C@H](c1cccc(F)c1F)CC[C@H]2NC(=O)N1CCC2(CC1)OC(=O)Nc1ncccc12	0.32	2.9	0.05	–	23000	–
COC(C)(C)c1cnc2n1C[C@H](c1cccc(F)c1F)CC[C@H]2NC(=O)N1CCC2(CC1)C(=O)Nc1ncccc12	0.82	1.4	0.4	–	9700	bioavailability [6]: 5%
CCC(CC)(OC)c1cnc2n1C[C@H](c1cccc(F)c1F)CC[C@H]2NC(=O)N1CCC2(CC1)OC(=O)Nc1ncccc12	0.25	0.42	0.039	–	3200	–
COC(C)(C)c1cnc2n1C[C@H](c1cccc(F)c1F)CC[C@H]2NC(=O)N1CCC2(CC1)OC(=O)Nc1ncccc12	0.24	0.63	0.05	16	32000	F (Rhesus monkey [9]): 29%; F (Rattus norvegicus): 26%; Papp [4]: 24 ×10⁻⁶ cm/s; F (Canis familiaris): 14%; solubility [10]: 1100 µg/mL (≈ 1890 µM); bioavailability [11]: 10%; bioavailability [12]: 5%
O=C1Nc2ncccc2C2(CCN(C(=O)N[C@@H]3CC[C@@H](c4cccc(F)c4F)Cn4c(CC(F)(F)F)cnc43)CC2)O1	0.41	2	0.07	33	–	bioavailability [11]: 28%; bioavailability [12]: 17%; EC90 (Rhesus monkey [7]): 1000 nM

Now from value to molecule, other results behind:

IC50 [1] [nM]	IC50 [2] [nM]	Ki [3] [nM]	bioavailability [5] [%]	SMILES	Ratio IC50 (Homo sapiens)	also measured
2.6	34	1.1	–	O=C(N[C@@H]1CC[C@@H](c2cccc(F)c2F)Cn2c(-c3ccccc3)cnc21)N1CCC(n2c(=O)[nH]c3ncccc32)CC1	–	–
0.37	2.6	0.14	35	O=C(N[C@@H]1CC[C@@H](c2cccc(F)c2F)Cn2c(CC(F)(F)F)cnc21)N1CCC(n2c(=O)[nH]c3ncccc32)CC1	–	Papp [4]: 24 ×10⁻⁶ cm/s
1.7	4.3	0.62	–	COCc1cnc2n1C[C@H](c1cccc(F)c1F)CC[C@H]2NC(=O)N1CCC2(CC1)C(=O)Nc1ncccc12	9500	bioavailability [6]: 21%
3.6	64	1.1	–	O=C(N[C@@H]1CC[C@@H](c2cccc(F)c2F)Cn2c(-c3nccs3)cnc21)N1CCC(n2c(=O)[nH]c3ncccc32)CC1	–	–
0.31	0.61	0.04	–	COC(C)(C)c1cnc2n1C[C@H](c1cccc(F)c1F)CC[C@H]2NC(=O)N1CCC(n2c(=O)[nH]c3ncccc32)CC1	–	–
6.7	19	3.1	–	O=C(N[C@@H]1CC[C@@H](c2cccc(F)c2F)Cn2ccnc21)N1CCC(n2c(=O)[nH]c3ncccc32)CC1	–	–
0.62	3.2	0.69	–	CC(C)c1cnc2n1C[C@H](c1cccc(F)c1F)CC[C@H]2NC(=O)N1CCC(n2c(=O)[nH]c3ncccc32)CC1	–	–
0.63	1.9	0.38	–	COCc1cnc2n1C[C@H](c1cccc(F)c1F)CC[C@H]2NC(=O)N1CCC(n2c(=O)[nH]c3ncccc32)CC1	–	–
1.6	2.4	1	2	O=C(N[C@@H]1CC[C@@H](c2cccc(F)c2F)Cn2c(C3CC3)nnc21)N1CCC(n2c(=O)[nH]c3ncccc32)CC1	–	Papp [4]: 4 ×10⁻⁶ cm/s
8.7	28	4	–	Cc1cn2c(n1)[C@H](NC(=O)N1CCC(n3c(=O)[nH]c4ncccc43)CC1)CC[C@@H](c1cccc(F)c1F)C2	–	–
4.1	12	2.2	–	Cc1cnc2n1C[C@H](c1cccc(F)c1F)CC[C@H]2NC(=O)N1CCC(n2c(=O)[nH]c3ncccc32)CC1	–	–
7.2	33	3.9	–	O=C(N[C@@H]1CC[C@@H](c2cccc(F)c2F)Cn2cc(CC(F)(F)F)nc21)N1CCC(n2c(=O)[nH]c3ncccc32)CC1	–	–
7.9	12	2.5	–	O=C(N[C@@H]1CC[C@@H](c2cccc(F)c2F)Cn2c(CO)cnc21)N1CCC(n2c(=O)[nH]c3ncccc32)CC1	–	–
12	15	5.7	–	CNCCc1cnc2n1C[C@H](c1cccc(F)c1F)CC[C@H]2NC(=O)N1CCC(n2c(=O)[nH]c3ncccc32)CC1	–	–
4.1	7.4	2.8	–	CN(C)C(=O)c1cnc2n1C[C@H](c1cccc(F)c1F)CC[C@H]2NC(=O)N1CCC(n2c(=O)[nH]c3ncccc32)CC1	–	–
12	26	3.2	–	O=C(N[C@@H]1CC[C@@H](c2cccc(F)c2F)Cn2cc(CO)nc21)N1CCC(n2c(=O)[nH]c3ncccc32)CC1	–	–
